Assay: the assays disclosed below (unspecified, Examples 10-17)
Conditions: assays not specified

## Cc1ncc(CN2CCN(C(=O)OC(C)(C)C)CC2)n1Cc1ccc(C#N)c(Oc2cccc(OCCO)c2)c1 [Example 1 Step G, 1-(tert-butoxycarbonyl)-4-[1-(3-((3-(2-hydroxyethoxy)phenyl)oxy)-4-cyanobenzyl)-2-methyl-5-imidazolylmethyl]piperazine]
  activity in the assays disclosed below: active
